Experimental data published in patent US11178873B2, “Cyclic N-carboxamide compounds useful as herbicides” (FMC CORPORATION, priority 2015, dated 2021).

Assays:
Type in all cases: in vivo
[1] = system: pigweed (Amaranthus retroflexus); test: Test A postemergence, pigweed; settings: 0 to 100 scale, 0 no effect, 100 complete control
From the text: (§1) Seeds of plant species selected from barnyardgrass (Echinochloa crus-galli), crabgrass, large (large crabgrass, Digitaria sanguinalis), kochia (Kochia scoparia), ragweed (common ragweed, Ambrosia elatior), morningglory (Ipomoea spp.), velvetleaf (Abutilon theophrasti), ryegrass, Italian (Italian ryegrass, Lolium multiflorum), foxtail, giant (giant foxtail, Setaria faberii), wheat (Triticum aestivum), corn (Zea mays), and pigweed (Amaranthus retroflexus), were planted into a blend of loam soil and sand and treated preemergence with a directed soil spray using test chemicals formulated in a non-phytotoxic solvent mixture which included a surfactant. At the same time, plants selected from these crop and weed species and also blackgrass (Alopecurus myosuroides), and galium (catchweed bedstraw, Galium aparine), were planted in pots containing the same blend of loam soil and sand and treated with postemergence applications of test chemicals formulated in the same manner. Plants ranged in height from 2 to 10 cm and were in the one- to two-leaf stage for the postemergence treatment. Treated plants and untreated controls were maintained in a greenhouse for approximately 10 d, after which time all treated plants were compared to untreated controls and visually evaluated for injury. Plant response ratings, summarized in Table A, are based on a 0 to 100 scale where 0 is no effect and 100 is complete control. A dash (-) response means no test result.

[2] = system: barnyardgrass (Echinochloa crus-galli); test: Test A preemergence, barnyardgrass; settings: 0 to 100 scale, 0 no effect, 100 complete control
From the text: as §1

rice (Oryza sativa) = test: Test B flooded paddy test, rice; settings: Flood, 250 g ai/ha; scale 0 to 100 (0 no effect, 100 complete control); 13 to 15 d
Procedure: (§2) Plant species in the flooded paddy test selected from rice (Oryza sativa), sedge, umbrella (small-flower umbrella sedge, Cyperus difformis), ducksalad (Heteranthera limosa), and barnyardgrass (Echinochloa crus-galli) were grown to the 2-leaf stage for testing. At time of treatment, test pots were flooded to 3 cm above the soil surface, treated by application of test compounds directly to the paddy water, and then maintained at that water depth for the duration of the test. Treated plants and controls were maintained in a greenhouse for 13 to 15 d, after which time all species were compared to controls and visually evaluated. Plant response ratings, summarized in Table B, are based on a scale of 0 to 100 where 0 is no effect and 100 is complete control. A dash (-) response means no test result.

[3] = system: pigweed (Amaranthus retroflexus); test: Test A preemergence, pigweed; settings: 0 to 100 scale, 0 no effect, 100 complete control
From the text: as §1

[4] = system: ragweed (common ragweed, Ambrosia elatior); test: Test A preemergence, ragweed; settings: 0 to 100 scale, 0 no effect, 100 complete control
From the text: as §1

[5] = system: ragweed (common ragweed, Ambrosia elatior); test: Test A postemergence, ragweed; settings: 0 to 100 scale, 0 no effect, 100 complete control
From the text: as §1

[6] = system: foxtail, giant (giant foxtail, Setaria faberii); test: Test A preemergence, foxtail, giant; settings: 0 to 100 scale, 0 no effect, 100 complete control
From the text: as §1

corn (Zea mays) = test: Test A postemergence, corn; settings: 0 to 100 scale, 0 no effect, 100 complete control
From the text: as §1

kochia (Kochia scoparia) [7] = test: Test A preemergence, kochia; settings: 0 to 100 scale, 0 no effect, 100 complete control
From the text: as §1

[8] = system: ducksalad (Heteranthera limosa); test: Test B flooded paddy test, ducksalad; settings: Flood, 250 g ai/ha; scale 0 to 100 (0 no effect, 100 complete control); 13 to 15 d
Procedure: as §2

kochia (Kochia scoparia) [9] = test: Test A postemergence, kochia; settings: 0 to 100 scale, 0 no effect, 100 complete control
From the text: as §1

[10] = system: ryegrass, Italian (Italian ryegrass, Lolium multiflorum); test: Test A postemergence, ryegrass, Italian; settings: 0 to 100 scale, 0 no effect, 100 complete control
From the text: as §1

[11] = system: blackgrass (Alopecurus myosuroides); test: Test A postemergence, blackgrass; settings: 0 to 100 scale, 0 no effect, 100 complete control
From the text: as §1

[12] = system: foxtail, giant (giant foxtail, Setaria faberii); test: Test A postemergence, foxtail, giant; settings: 0 to 100 scale, 0 no effect, 100 complete control
From the text: as §1

[13] = system: ryegrass, Italian (Italian ryegrass, Lolium multiflorum); test: Test A preemergence, ryegrass, Italian; settings: 0 to 100 scale, 0 no effect, 100 complete control
From the text: as §1

[14] = system: sedge, umbrella (small-flower umbrella sedge, Cyperus difformis); test: Test B flooded paddy test, sedge, umbrella; settings: Flood, 250 g ai/ha; scale 0 to 100 (0 no effect, 100 complete control); 13 to 15 d
Procedure: as §2

[15] = system: galium (catchweed bedstraw, Galium aparine); test: Test A postemergence, galium; settings: 0 to 100 scale, 0 no effect, 100 complete control
From the text: as §1

[16] = system: barnyardgrass (Echinochloa crus-galli); test: Test B flooded paddy test, barnyardgrass; settings: Flood, 250 g ai/ha; scale 0 to 100 (0 no effect, 100 complete control); 13 to 15 d
Procedure: as §2

[17] = system: wheat (Triticum aestivum); test: Test A postemergence, wheat; settings: 0 to 100 scale, 0 no effect, 100 complete control
From the text: as §1

[18] = system: barnyardgrass (Echinochloa crus-galli); test: Test A postemergence, barnyardgrass; settings: 0 to 100 scale, 0 no effect, 100 complete control
From the text: as §1

Compound	Plant response rating, Pigweed ([1]; 31 g ai/ha)	Plant response rating, Pigweed ([1]; 125 g ai/ha)	Plant response rating, Barnyardgrass ([2]; 31 g ai/ha)	Plant response rating, Barnyardgrass ([2]; 125 g ai/ha)	Plant response rating, Rice (rice (Oryza sativa))	Plant response rating, Pigweed ([3]; 31 g ai/ha)	Plant response rating, Pigweed ([3]; 125 g ai/ha)	Plant response rating, Ragweed ([4]; 31 g ai/ha)	Plant response rating, Ragweed ([4]; 125 g ai/ha)	Plant response rating, Ragweed ([5]; 31 g ai/ha)	Plant response rating, Ragweed ([5]; 125 g ai/ha)	Plant response rating, Foxtail, Giant ([6]; 31 g ai/ha)	Plant response rating, Foxtail, Giant ([6]; 125 g ai/ha)	Plant response rating, Corn (corn (Zea mays); 31 g ai/ha)	Plant response rating, Corn (corn (Zea mays); 125 g ai/ha)	Plant response rating, Kochia (kochia (Kochia scoparia) [7]; 31 g ai/ha)	Plant response rating, Kochia (kochia (Kochia scoparia) [7]; 125 g ai/ha)	Plant response rating, Ducksalad [8]	Plant response rating, Kochia (kochia (Kochia scoparia) [9]; 31 g ai/ha)	Plant response rating, Kochia (kochia (Kochia scoparia) [9]; 125 g ai/ha)	further results
CN1CC(c2ccc(C(F)(F)F)cc2)N(C(=O)Nc2ccc(F)cc2F)C1=O (stereo not drawn) [Compound 15]	0	0	0	0	0	0	0	0	0	0	0	0	0	0	0	0	0	60	0	0	Plant response rating, Ryegrass, Italian ([10]; 31 g ai/ha): 0; Plant response rating, Ryegrass, Italian ([10]; 125 g ai/ha): 0; Plant response rating, Blackgrass ([11]; 31 g ai/ha): 0; Plant response rating, Blackgrass ([11]; 125 g ai/ha): 0; Plant response rating, Foxtail, Giant ([12]; 31 g ai/ha): 0; Plant response rating, Foxtail, Giant ([12]; 125 g ai/ha): 0; Plant response rating, Ryegrass, Italian ([13]; 31 g ai/ha): 0; Plant response rating, Ryegrass, Italian ([13]; 125 g ai/ha): 0; Plant response rating, Sedge, Umbrella [14]: 0; Plant response rating, Galium ([15]; 31 g ai/ha): 0; Plant response rating, Galium ([15]; 125 g ai/ha): 0; Plant response rating, Barnyardgrass [16]: 10; Plant response rating, Wheat ([17]; 31 g ai/ha): 0; Plant response rating, Wheat ([17]; 125 g ai/ha): 0; Plant response rating, Barnyardgrass ([18]; 31 g ai/ha): 0; Plant response rating, Barnyardgrass ([18]; 125 g ai/ha): 0
CN1CC(c2cccc(C(F)(F)F)c2)N(C(=O)Nc2ccc(F)cc2F)C1=O (stereo not drawn) [Compound 17]	0	0	0	50	0	0	0	0	0	0	0	50	80	0	0	0	20	40	0	0	Plant response rating, Ryegrass, Italian ([10]; 31 g ai/ha): 0; Plant response rating, Ryegrass, Italian ([10]; 125 g ai/ha): 0; Plant response rating, Blackgrass ([11]; 31 g ai/ha): 0; Plant response rating, Blackgrass ([11]; 125 g ai/ha): 0; Plant response rating, Foxtail, Giant ([12]; 31 g ai/ha): 0; Plant response rating, Foxtail, Giant ([12]; 125 g ai/ha): 10; Plant response rating, Ryegrass, Italian ([13]; 31 g ai/ha): 0; Plant response rating, Ryegrass, Italian ([13]; 125 g ai/ha): 0; Plant response rating, Sedge, Umbrella [14]: 0; Plant response rating, Galium ([15]; 31 g ai/ha): 0; Plant response rating, Galium ([15]; 125 g ai/ha): 0; Plant response rating, Barnyardgrass [16]: 0; Plant response rating, Wheat ([17]; 31 g ai/ha): 0; Plant response rating, Wheat ([17]; 125 g ai/ha): 0; Plant response rating, Barnyardgrass ([18]; 31 g ai/ha): 0; Plant response rating, Barnyardgrass ([18]; 125 g ai/ha): 10
O=C1CCC(c2ccc(Cl)cc2)N1C(=O)Nc1ccccc1C(F)(F)F (stereo not drawn) [Compound 23]	0	0	0	0	0	0	0	0	0	0	0	0	0	0	0	0	0	0	0	0	Plant response rating, Ryegrass, Italian ([10]; 31 g ai/ha): 0; Plant response rating, Ryegrass, Italian ([10]; 125 g ai/ha): 0; Plant response rating, Blackgrass ([11]; 31 g ai/ha): 0; Plant response rating, Blackgrass ([11]; 125 g ai/ha): 0; Plant response rating, Foxtail, Giant ([12]; 31 g ai/ha): 0; Plant response rating, Foxtail, Giant ([12]; 125 g ai/ha): 0; Plant response rating, Ryegrass, Italian ([13]; 31 g ai/ha): 0; Plant response rating, Ryegrass, Italian ([13]; 125 g ai/ha): 0; Plant response rating, Sedge, Umbrella [14]: 0; Plant response rating, Galium ([15]; 31 g ai/ha): 0; Plant response rating, Galium ([15]; 125 g ai/ha): 0; Plant response rating, Barnyardgrass [16]: 0; Plant response rating, Wheat ([17]; 31 g ai/ha): 0; Plant response rating, Wheat ([17]; 125 g ai/ha): 0; Plant response rating, Barnyardgrass ([18]; 31 g ai/ha): 0; Plant response rating, Barnyardgrass ([18]; 125 g ai/ha): 0
